ChEMBL document CHEMBL1139192, “Novel bis(indolyl)maleimide pyridinophanes that are potent, selective inhibitors of glycogen synthase kinase-3” (Bioorg Med Chem Lett, 2007)

Columns and labels:
[1] = Inhibition of MEK1 at 1 uM relative to control; values are per cent of control; conditions: Homo sapiens
[2] = biological target: T1, Ephrin type-B receptor 4 (Homo sapiens) (UniProt P54760); test: Residual activity of human EphB4 at 1 uM relative to control
T1 sequence (whole entry): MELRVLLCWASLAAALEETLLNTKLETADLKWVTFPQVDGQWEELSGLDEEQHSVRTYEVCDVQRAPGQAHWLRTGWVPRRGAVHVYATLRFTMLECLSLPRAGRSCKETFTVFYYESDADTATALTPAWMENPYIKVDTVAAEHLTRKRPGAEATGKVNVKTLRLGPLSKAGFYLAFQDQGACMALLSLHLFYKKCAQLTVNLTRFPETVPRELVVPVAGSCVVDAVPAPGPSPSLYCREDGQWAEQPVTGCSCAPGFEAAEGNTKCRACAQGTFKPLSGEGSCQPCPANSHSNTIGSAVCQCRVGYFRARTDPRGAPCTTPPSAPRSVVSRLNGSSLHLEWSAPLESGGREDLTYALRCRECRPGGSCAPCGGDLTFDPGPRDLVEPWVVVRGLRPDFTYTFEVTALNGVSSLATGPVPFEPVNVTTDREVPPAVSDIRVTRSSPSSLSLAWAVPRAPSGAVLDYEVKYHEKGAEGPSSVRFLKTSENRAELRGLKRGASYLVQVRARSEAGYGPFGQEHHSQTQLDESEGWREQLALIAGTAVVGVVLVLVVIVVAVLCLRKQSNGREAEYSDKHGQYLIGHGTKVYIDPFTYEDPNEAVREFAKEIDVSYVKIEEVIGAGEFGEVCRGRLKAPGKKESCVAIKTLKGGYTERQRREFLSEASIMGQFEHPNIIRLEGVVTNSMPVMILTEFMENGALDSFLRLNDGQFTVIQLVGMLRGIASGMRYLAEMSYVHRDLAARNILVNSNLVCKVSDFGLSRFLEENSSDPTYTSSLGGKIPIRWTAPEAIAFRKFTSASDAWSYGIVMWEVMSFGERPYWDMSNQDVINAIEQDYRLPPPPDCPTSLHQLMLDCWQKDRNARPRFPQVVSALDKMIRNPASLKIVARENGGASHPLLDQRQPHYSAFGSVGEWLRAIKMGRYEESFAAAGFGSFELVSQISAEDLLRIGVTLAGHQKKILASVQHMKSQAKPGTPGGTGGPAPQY

[3] = biological target: Tyrosine-protein kinase Lyn (Mus musculus) (UniProt P25911); test: Inhibition of mouse Lyn at 1 uM relative to control; values are per cent of control
[4] = biological target: Rho-associated protein kinase 2 (Homo sapiens) (UniProt O75116); test: Inhibition of human ROCK2 at 1 uM relative to control; values are per cent of control
[5] = biological target: Proto-oncogene tyrosine-protein kinase Src (Homo sapiens) (UniProt P12931); test: Residual activity of human cSRC at 1 uM relative to control
[6] = biological target: Mitogen-activated protein kinase 10 (Homo sapiens) (UniProt P53779); test: Inhibition of human JNK3 at 1 uM relative to control; values are per cent of control
Mus musculus = species on record: Mus musculus; test: Inhibition of mouse MAPK2 at 1 uM relative to control; values are per cent of control
[7] = biological target: T2, Serine/threonine-protein kinase Chk1 (Homo sapiens) (UniProt O14757); test: Inhibition of human CHK1 at 1 uM relative to control; values are per cent of control
T2 sequence (whole entry): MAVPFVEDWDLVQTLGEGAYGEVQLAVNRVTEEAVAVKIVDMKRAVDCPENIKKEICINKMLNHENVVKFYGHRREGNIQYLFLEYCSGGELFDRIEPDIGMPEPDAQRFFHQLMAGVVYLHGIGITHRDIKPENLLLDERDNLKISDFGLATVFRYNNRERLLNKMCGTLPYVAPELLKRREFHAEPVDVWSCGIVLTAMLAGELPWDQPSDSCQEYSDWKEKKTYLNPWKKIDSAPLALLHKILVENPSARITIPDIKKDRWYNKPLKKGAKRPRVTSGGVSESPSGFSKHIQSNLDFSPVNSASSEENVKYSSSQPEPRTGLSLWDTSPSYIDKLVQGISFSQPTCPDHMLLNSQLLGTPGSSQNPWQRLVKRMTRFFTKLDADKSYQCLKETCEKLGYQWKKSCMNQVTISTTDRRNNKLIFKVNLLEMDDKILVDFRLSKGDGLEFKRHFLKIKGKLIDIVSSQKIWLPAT

Rattus norvegicus = species on record: Rattus norvegicus; test: Inhibition of rat CaMK2 at 1 uM relative to control; values are per cent of control
Homo sapiens [8] = species on record: Homo sapiens; test: Residual activity of human CDK3/Cyclin E at 1 uM relative to control
[9] = biological target: Glycogen synthase kinase-3 alpha (Homo sapiens) (UniProt P49840); test: Inhibition of human GSK3alpha relative to control; values are per cent of control
[10] = biological target: Protein kinase C eta type (Homo sapiens) (UniProt P24723); test: Residual activity of human PKCeta at 1 uM relative to control
[11] = biological target: Mitogen-activated protein kinase 11 (Homo sapiens) (UniProt Q15759); test: Inhibition of human SAPK2b at 1 uM relative to control; values are per cent of control
Homo sapiens [12] = species on record: Homo sapiens; test: Residual activity of human CDK2/Cyclin A at 1 uM relative to control
[13] = biological target: Tyrosine-protein kinase ZAP-70 (Homo sapiens) (UniProt P43403); test: Residual activity of human ZAP70 kinase at 1 uM relative to control
Sequence of Tyrosine-protein kinase ZAP-70 (Homo sapiens) (P43403 whole entry, looked up): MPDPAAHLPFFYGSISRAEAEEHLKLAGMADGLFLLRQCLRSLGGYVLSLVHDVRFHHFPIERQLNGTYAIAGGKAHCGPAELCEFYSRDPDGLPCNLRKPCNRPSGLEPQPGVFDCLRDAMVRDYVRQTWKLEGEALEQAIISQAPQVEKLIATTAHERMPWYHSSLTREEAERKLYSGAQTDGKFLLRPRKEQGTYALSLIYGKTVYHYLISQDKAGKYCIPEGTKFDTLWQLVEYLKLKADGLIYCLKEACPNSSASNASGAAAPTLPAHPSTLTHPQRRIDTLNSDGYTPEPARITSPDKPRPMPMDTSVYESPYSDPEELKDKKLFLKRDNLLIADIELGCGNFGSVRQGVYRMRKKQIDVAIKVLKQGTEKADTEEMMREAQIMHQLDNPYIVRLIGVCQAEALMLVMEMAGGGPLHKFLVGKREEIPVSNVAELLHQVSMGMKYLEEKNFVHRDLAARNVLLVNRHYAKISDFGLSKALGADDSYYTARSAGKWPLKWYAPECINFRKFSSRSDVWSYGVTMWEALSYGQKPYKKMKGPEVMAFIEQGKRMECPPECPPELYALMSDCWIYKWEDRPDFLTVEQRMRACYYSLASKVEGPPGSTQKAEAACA

Sequence of Tyrosine-protein kinase Lyn (Mus musculus) (P25911 whole entry): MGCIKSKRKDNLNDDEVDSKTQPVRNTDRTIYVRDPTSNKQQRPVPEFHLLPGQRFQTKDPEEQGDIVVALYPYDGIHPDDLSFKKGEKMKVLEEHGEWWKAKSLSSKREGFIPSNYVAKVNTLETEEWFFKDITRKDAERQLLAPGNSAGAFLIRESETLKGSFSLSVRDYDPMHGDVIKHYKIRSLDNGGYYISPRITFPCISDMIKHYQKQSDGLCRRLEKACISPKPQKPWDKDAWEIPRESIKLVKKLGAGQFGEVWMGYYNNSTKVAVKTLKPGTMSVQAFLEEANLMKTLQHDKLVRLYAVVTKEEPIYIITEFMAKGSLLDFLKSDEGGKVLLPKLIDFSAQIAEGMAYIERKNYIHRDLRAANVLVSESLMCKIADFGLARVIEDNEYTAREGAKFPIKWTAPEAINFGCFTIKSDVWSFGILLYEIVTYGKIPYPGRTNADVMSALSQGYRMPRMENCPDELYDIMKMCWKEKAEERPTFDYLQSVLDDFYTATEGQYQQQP
Sequence of Glycogen synthase kinase-3 alpha (Homo sapiens) (P49840 2-483 limits assumed): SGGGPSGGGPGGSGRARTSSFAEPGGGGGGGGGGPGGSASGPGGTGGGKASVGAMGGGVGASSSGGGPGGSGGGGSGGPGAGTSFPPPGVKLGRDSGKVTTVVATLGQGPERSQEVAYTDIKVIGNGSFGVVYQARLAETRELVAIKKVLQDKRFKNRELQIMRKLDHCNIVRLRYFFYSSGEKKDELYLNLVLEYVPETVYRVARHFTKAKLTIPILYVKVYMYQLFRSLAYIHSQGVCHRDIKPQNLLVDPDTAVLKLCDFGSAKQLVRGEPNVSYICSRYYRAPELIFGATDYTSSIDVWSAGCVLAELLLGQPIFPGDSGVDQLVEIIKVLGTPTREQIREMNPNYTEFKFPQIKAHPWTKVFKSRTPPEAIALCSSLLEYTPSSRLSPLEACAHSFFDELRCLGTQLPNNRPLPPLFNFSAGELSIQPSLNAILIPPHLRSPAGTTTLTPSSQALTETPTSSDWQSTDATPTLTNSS
Sequence of Mitogen-activated protein kinase 11 (Homo sapiens) (Q15759 whole entry): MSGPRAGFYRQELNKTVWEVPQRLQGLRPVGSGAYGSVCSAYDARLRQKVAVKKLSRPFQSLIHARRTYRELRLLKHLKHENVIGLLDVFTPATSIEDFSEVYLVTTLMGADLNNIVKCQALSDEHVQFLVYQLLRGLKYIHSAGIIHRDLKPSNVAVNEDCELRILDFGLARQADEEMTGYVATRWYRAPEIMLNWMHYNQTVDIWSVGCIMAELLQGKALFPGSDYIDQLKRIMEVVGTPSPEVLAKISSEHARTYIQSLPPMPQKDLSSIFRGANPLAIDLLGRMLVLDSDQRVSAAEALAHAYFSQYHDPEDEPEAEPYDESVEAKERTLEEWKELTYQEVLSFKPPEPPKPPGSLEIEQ
Sequence of Rho-associated protein kinase 2 (Homo sapiens) (O75116 whole entry, looked up): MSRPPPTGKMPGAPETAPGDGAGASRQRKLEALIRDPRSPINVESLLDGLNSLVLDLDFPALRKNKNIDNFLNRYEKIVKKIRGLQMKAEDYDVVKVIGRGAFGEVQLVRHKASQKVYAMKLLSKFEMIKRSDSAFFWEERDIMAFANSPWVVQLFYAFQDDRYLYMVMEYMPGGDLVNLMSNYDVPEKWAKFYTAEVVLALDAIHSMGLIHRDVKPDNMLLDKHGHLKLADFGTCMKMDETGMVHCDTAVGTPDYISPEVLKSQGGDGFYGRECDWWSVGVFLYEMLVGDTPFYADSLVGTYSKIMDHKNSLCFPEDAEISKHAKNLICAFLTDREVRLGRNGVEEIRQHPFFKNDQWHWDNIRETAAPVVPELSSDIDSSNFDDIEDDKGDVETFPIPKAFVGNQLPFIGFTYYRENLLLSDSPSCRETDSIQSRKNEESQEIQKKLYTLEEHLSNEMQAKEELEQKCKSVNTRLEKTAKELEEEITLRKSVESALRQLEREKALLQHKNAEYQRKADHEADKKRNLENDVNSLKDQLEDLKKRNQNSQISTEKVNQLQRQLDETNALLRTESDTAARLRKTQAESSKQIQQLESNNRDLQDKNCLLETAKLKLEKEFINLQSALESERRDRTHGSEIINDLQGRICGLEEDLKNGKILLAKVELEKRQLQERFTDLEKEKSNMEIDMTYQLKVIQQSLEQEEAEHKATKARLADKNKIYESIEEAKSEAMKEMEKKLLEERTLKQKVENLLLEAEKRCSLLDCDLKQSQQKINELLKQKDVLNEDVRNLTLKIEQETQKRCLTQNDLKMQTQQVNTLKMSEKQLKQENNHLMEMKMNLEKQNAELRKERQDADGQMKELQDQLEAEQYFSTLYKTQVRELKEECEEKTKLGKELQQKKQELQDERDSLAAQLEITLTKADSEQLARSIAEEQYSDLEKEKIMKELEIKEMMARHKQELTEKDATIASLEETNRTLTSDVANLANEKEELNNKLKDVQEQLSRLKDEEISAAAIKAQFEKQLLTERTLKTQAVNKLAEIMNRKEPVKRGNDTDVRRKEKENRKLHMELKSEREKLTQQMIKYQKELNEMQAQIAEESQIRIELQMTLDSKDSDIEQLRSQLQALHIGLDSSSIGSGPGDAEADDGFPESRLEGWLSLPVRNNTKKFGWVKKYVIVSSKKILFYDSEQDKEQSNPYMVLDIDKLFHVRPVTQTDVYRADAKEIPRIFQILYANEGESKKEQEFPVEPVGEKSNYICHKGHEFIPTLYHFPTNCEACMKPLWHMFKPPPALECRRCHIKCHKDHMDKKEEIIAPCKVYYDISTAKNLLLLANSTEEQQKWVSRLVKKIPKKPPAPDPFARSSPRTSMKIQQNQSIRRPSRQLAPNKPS
Sequence of Mitogen-activated protein kinase 10 (Homo sapiens) (P53779 whole entry): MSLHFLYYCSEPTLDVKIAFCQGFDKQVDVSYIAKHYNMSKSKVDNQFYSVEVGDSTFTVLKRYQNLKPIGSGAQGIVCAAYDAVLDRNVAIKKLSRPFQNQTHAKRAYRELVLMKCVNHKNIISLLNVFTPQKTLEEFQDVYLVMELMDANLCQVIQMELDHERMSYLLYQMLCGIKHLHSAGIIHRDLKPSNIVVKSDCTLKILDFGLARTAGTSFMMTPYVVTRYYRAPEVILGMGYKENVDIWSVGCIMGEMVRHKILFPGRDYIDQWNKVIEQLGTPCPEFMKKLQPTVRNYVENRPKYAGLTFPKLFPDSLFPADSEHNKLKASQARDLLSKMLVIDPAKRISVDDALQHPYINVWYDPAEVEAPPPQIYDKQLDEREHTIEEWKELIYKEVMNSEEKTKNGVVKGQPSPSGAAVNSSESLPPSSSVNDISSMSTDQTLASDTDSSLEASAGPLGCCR
Sequence of Protein kinase C eta type (Homo sapiens) (P24723 whole entry): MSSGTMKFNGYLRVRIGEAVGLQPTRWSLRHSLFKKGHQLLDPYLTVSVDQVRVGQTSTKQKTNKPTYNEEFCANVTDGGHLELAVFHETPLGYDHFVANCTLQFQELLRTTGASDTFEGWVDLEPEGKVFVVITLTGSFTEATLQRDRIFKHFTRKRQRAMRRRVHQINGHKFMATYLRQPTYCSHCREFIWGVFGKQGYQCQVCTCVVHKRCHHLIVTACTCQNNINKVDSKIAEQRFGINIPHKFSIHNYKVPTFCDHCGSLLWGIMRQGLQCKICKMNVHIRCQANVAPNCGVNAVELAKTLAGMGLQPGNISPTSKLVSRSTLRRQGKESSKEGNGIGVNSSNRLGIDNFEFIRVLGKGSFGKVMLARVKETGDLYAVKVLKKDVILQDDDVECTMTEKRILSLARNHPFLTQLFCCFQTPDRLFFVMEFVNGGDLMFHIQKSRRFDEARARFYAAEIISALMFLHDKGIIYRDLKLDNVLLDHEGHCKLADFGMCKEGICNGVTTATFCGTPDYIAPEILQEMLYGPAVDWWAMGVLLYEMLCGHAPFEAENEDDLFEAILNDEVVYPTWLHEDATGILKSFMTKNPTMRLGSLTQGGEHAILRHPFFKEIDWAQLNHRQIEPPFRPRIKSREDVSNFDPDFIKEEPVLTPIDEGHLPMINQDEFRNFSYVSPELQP
Sequence of Proto-oncogene tyrosine-protein kinase Src (Homo sapiens) (P12931 2-536 limits assumed): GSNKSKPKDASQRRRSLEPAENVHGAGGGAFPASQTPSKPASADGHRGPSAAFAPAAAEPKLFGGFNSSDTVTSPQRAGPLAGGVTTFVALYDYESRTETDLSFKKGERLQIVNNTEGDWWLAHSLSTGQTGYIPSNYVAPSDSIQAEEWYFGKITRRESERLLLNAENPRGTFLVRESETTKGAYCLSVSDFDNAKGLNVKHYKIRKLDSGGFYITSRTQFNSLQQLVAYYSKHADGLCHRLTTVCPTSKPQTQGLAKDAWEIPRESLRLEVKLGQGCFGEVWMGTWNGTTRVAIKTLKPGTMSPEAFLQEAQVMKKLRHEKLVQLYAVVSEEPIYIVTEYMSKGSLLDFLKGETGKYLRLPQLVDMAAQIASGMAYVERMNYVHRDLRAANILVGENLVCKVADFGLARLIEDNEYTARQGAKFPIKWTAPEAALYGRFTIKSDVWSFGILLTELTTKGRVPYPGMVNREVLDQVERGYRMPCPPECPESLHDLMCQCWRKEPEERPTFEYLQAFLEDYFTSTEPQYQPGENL

residual activity [1] [%] | residual activity [2] [%] | residual activity [3] [%] | residual activity [4] [%] | residual activity [5] [%] | residual activity [6] [%] | residual activity (Mus musculus) [%] | residual activity [7] [%] | residual activity (Rattus norvegicus) [%] | residual activity (Homo sapiens [8]) [%] | residual activity [9] [%] | residual activity [10] [%] | residual activity [11] [%] | residual activity (Homo sapiens [12]) [%] | residual activity [13] [%] | Structure (SMILES)
76 | 89 | 90 | 110 | 81 | 96 | 95 | 105 | 92 | 59 | 4 | 104 | 104 | 120 | 113 | CN(C)c1nc2ccc1CCCn1cc(c3ccccc31)C1=C(C(=O)NC1=O)c1cn(c3ccccc13)CC2
93 | 103 | 102 | 103 | 105 | 107 | 95 | 101 | 107 | 89 | 3 | 117 | 119 | 80 | 103 | CN(C)c1cc2cc(n1)CCCn1cc(c3ccccc31)C1=C(C(=O)NC1=O)c1cn(c3ccccc13)CCC2
– | 100 | 104 | 104 | 113 | 102 | 99 | 106 | – | 106 | 9 | 90 | 99 | 88 | 121 | O=C1NC(=O)C2=C1c1cn(c3ccccc13)CCCc1ccc(c(N3CCCC3)n1)CCCn1cc2c2ccccc21
91 | 109 | 99 | 107 | 97 | 103 | 103 | 110 | 109 | 86 | 4 | 121 | 114 | 88 | 115 | O=C1NC(=O)C2=C1c1cn(c3ccccc13)CCCc1cc(nc(N3CCCC3)c1)CCCn1cc2c2ccccc21
